These results are taken from PMC8588511, “Chromane Derivatives from Underground Parts of Iris tenuifolia and Their In Vitro Antimicrobial, Cytotoxicity and Antiproliferative Evaluation” (Molecules, 2021).

“Also recorded” adds a separate entry of the source. Read-outs that look alike come from different tables or passages of the source. Some results are limits rather than exact numbers.

One may read the CC50 as the concentration giving 50% cytotoxicity. For orientation: GI50 means the concentration that inhibits growth by half. For orientation: zone of inhibition means the extent of the growth-free halo in a diffusion test.

The subject of data set [1] is human cervix carcinoma cells (HeLa). Nature of the data set: cytotoxicity assay (methylene blue). The class given is cell-based. The protocol: (§1) In this assay, K-562 (DSM ACC 10), THP-1 (DSM ACC 16), and HeLa (DSM ACC 57) were maintained in Roswell Park Memorial Institute (RPMI) 1640 medium (Cambrex 12-167F) while HUVEC (ATCC CRL-1730) and A549 (DSM ACC 107) were cultured in Dulbecco’s Modified Eagle’s Medium (DMEM) (Cambrex 12-614F). Cells that were grown in the appropriate cell culture medium were supplemented with 10 mL/L ultraglutamine 1 (Cambrex 17-605E/U1), 550 µL/L (50 mg/mL) gentamicin sulfate (Cambrex 17-518Z), and 10% heat inactivated fetal bovine serum (GIBCO Life Technologies 10270-106) at 37 °C. The tested compounds were dissolved in DMSO, and the cells were seeded in 96-well plates at a density of 1 × 10^4 cells/well. As for the antiproliferative effect of the compounds, the cells were incubated for 72 h, and GI50 values were evaluated to be defined as the concentration causing 50% inhibition of proliferation compared to the untreated control. With regard to the cytotoxic assay, HeLa cells were pre-incubated for 48 h without the test compounds. Then, the cells were exposed with different concentrations of compounds and incubated for 72 h. After that, the adherent HeLa cells were fixed by glutaraldehyde and stained with a 0.05% solutions of methylene blue (SERVA 29198) for 15 min. CC50 was evaluated to be defined as the concentration required for the death of 50% of the cell monolayer as compared to control groups. Under our experimental conditions, the optical density measured from the CellTiter-Blue reagent and methylene blue assay is proportional to the number of viable cells. In this experiment, absorbances were measured at 570 nm against the reference wavelength of 600 nm (CellTiter-Blue assay) and at 660 nm (methylene blue assay). Doxorubicin (Adriamycin®) and imatinib (Gleevec®) were used as positive controls for HUVEC, K-562, and HeLa cells. A repeat determination has been conducted in all experiments, and four replicates were assayed. The calculations of the different values of GI50 and CC50 were performed with software Magellan version 3.00 (Tecan Trading AG, Maennedorf, Switzerland).

The subject of data set [2] is human chronic myeloid leukemia cells (K-562). Nature of the data set: antiproliferation assay (CellTiter-Blue). In kind it is cell-based. As to conditions: for GI50: K-562, 72 h, read-out: Antiproliferative Effect, GI50 (CI 95%); for antiproliferative activity in words: K-562. The protocol:
as §1
Background: Resazurin is reduced to fluorescent resorufin, in cell work by metabolically active cells.

For data set [3], the system named is human lung carcinoma cells (A549). Description: antiproliferation assay (CellTiter-Blue). The class given is cell-based. To be noted: A549, 72 h, read-out: Antiproliferative Effect, GI50 (CI 95%). The protocol: as §1
Data set [4] concerns human acute monocytic leukemia cells (THP-1). Nature of the data set: antiproliferation assay (CellTiter-Blue). In kind it is cell-based. To be noted: for GI50: THP-1, 72 h, read-out: Antiproliferative Effect, GI50 (CI 95%). As to the method: as §1
In data set [5] the test system is human umbilical vein endothelial cells (HUVEC). Nature of the data set: antiproliferation assay (CellTiter-Blue). To be noted: 72 h, read-out: Antiproliferative Effect, GI50 (CI 95%). The class given is cell-based. As to the method:
as §1

Data set [6] relates to Sporobolomyces salmonicolor (549 H4). Nature of the data set: agar diffusion antifungal assay. As to conditions: 50 μL of 1 mg/mL in DMSO, 18 h, 30 °C, amphotericin B 10 µg/mL. The class given is cell-based. The protocol: (§2) Compounds 1, 2, 3, 5, 9, and 10 were tested for their antimicrobial activities against S. aureus (JMRC:STI 10760), B. subtilis (JMRC:STI 10880), S. aureus MRSA (JMRC: ST 33793) E. faecalis VRE (JMRC: ST 33700), E. coli (JMRC:ST 33699), P. aeruginosa (JMRC:ST 33771), P. aeruginosa (JMRC:ST 33772), M. vaccae (JMRC:STI 10670), S. salmonicolor (JMRC:ST 35974), C. albicans (JMRC:STI 25000), and P. notatum (JMRC:STI 50164)) using agar diffusion assay as previously published. Strains were obtained from the Jena Microbial Resource Collection (JMRC). The bacteria were cultivated on standard I nutrient agar in Petri dishes at 37 °C. Antifungal bioassays were conducted at 30 °C using the basidiomycetous yeast S. salmonicolor and the filamentous ascomycete P. notatum, which were cultivated on malt agar, and the ascomycetous yeast C. albicans, which was cultivated on yeast morphology agar. After inoculation of the test organisms, a disc (9 mm in diameter) was removed from the center of the Petri dish and 50 μL of the test solution (1 mg/mL in DMSO) was added to the cavity. After 18 h of incubation, the inhibiting areola were measured and documented as diameters in mm. Ciprofloxacin (5 µg/mL in deionized water) and amphotericin B (10 µg/mL in DMSO/MeOH 1:1) were used as reference substances against bacterial and fungal strains, respectively.

In data set [7] the test system is Penicillium notatum (JP36 P1). Description: agar diffusion antifungal assay. In kind it is cell-based. The protocol: as §2
In general terms: Agar diffusion results depend on both activity and mobility in agar.

The test system of data set [8] is Candida albicans (C.alb.H8). Nature of the data set: agar diffusion antifungal assay. In kind it is cell-based. To be noted: for zone of inhibition at 1000 µg/mL: read-out: Inhibition Zone of Test Microorganism; for antifungal activity in words: Candida albicans, agar diffusion. As to the method:
as §2

Data set [9] deals with Mycobacterium vaccae (10670 M4). Nature of the data set: agar diffusion antimicrobial assay. The class given is cell-based. To be noted: for zone of inhibition at 1000 µg/mL: Mycolicibacterium vaccae, read-out: Inhibition Zone of Test Microorganism. The protocol:
as §2

Data set [10] deals with Staphylococcus aureus (511 B3). Nature of the data set: agar diffusion antimicrobial assay. As to conditions: 50 μL of 1 mg/mL in DMSO, 18 h, ciprofloxacin 5 µg/mL. The class given is cell-based. As to the method: as §2
Data set [11] deals with Staphylococcus aureus (MRSA 134/94 R9). Description: agar diffusion antimicrobial assay. The class given is cell-based. As to conditions: 50 μL of 1 mg/mL in DMSO, 18 h, ciprofloxacin 5 µg/mL. The protocol:
as §2

Data set [12] relates to Enterococcus faecalis (VRE 1528 R10). Description: agar diffusion antimicrobial assay. The class given is cell-based. As to conditions: for zone of inhibition at 1000 µg/mL: read-out: Inhibition Zone of Test Microorganism. As to the method: as §2
Data set [13] has as its system Escherichia coli (458 B4). Description: agar diffusion antimicrobial assay. In kind it is cell-based. As to conditions: 50 μL of 1 mg/mL in DMSO, 18 h, ciprofloxacin 5 µg/mL. As to the method:
as §2

For data set [14], the system named is Bacillus subtilis (6633 B1). Nature of the data set: agar diffusion antimicrobial assay. In kind it is cell-based. To be noted: Bacillus subtilis (6633 B1), 50 μL of 1 mg/mL in DMSO, 18 h, ciprofloxacin 5 µg/mL; for zone of inhibition at 1000 µg/mL: read-out: Inhibition Zone of Test Microorganism. The protocol: as §2
Data set [15] is described as follows: cytotoxicity assay (methylene blue). In kind it is cell-based, human. To be noted: human, HeLa cells (DSM ACC 57); HeLa, 72 h; read-out: Cytotoxicity CC50 (CI 95%). As to the method: as §1
Data set [16] relates to three fungi and eight bacterial strains. Description: agar diffusion assay, whole panel. The class given is cell-based. As to conditions: eleven microorganisms. As to the method:
as §2

For data set [17], the system named is Pseudomonas aeruginosa (K799/61 B9). Description: agar diffusion antimicrobial assay. To be noted: 18 h; for Inhibition Zone of Test Microorganism: Pseudomonas aeruginosa (K799/61 B9), 50 μL of 1 mg/mL in DMSO, ciprofloxacin 5 µg/mL. In kind it is cell-based. The protocol:
as §2

Data set [18] relates to Pseudomonas aeruginosa (SG137 B7). Nature of the data set: agar diffusion antimicrobial assay. In kind it is cell-based. To be noted: 50 μL of 1 mg/mL in DMSO, 18 h, ciprofloxacin 5 µg/mL. As to the method:
as §2

The mark [19] stands for this setting: Candida albicans (C.alb.H8), 50 μL of 1 mg/mL in DMSO, 18 h, 30 °C, amphotericin B 10 µg/mL.
The mark [20] stands for this setting: Mycobacterium vaccae (10670 M4), 50 μL of 1 mg/mL in DMSO, 18 h, ciprofloxacin 5 µg/mL.
Where [21] appears, read: Enterococcus faecalis (VRE 1528 R10), 50 μL of 1 mg/mL in DMSO, 18 h, ciprofloxacin 5 µg/mL.
Setting [22] is: read-out: Inhibition Zone of Test Microorganism.

On to “3,5,3′-Trihydroxy-7,2′-dimethoxyflavonol [Compound 11]”, for which, in [1], the CC50 is more than 100 µM. The GI50 in [2] is 71.5 µM; in data set [3] it was 67 µM; in [4], 50.6 µM; in data set [5], more than 100 µM.

Take `C[C@@H]1[C@H](O)[C@@H](C)/C=C/C=C/C=C/C=C/C=C/C=C/C=C/[C@H](O[C@@H]2O[C@H](C)[C@@H](O)[C@H](N)[C@@H]2O)C[C@@H]2O[C@](O)(C[C@@H](O)C[C@@H](O)[C@H](O)CC[C@@H](O)C[C@@H](O)CC(=O)O[C@H]1C)C[C@H](O)[C@H]2C(=O)O` [Amphotericin B, reference compound]: the “Inhibition Zone of Test Microorganism” value in [6] is 19 mm; in [7] (Penicillium notatum (JP36 P1), 50 μL of 1 mg/mL in DMSO, 18 h, 30 °C, amphotericin B 10 µg/mL), 19 mm; in data set [8] (setting [19]), 20 mm.

`O=C(O)c1cn(C2CC2)c2cc(N3CCNCC3)c(F)cc2c1=O` [Ciprofloxacin, reference compound]: the “Inhibition Zone of Test Microorganism” value in data set [9] (setting [20]) was 22 mm; in [10] it was 19 mm; in [11], “-”; in data set [12] (setting [21]), 16 mm; in [13], 32 mm; in data set [14], 29 mm.

On to `O=C1C[C@@H](c2cccc(O)c2O)Oc2cc(O)cc(O)c21` [Compound 3, (2S)-5,7,2′,3′-Tetrahydroxyflavanone], for which, in [15], the cytotoxic concentration (CC50) at 72 h was more than 100 µM. In data set [16], the “antimicrobial activity over the panel in words” value is reported as “most active”. The GI50 in data set [2] (Homo sapiens, K562) was 32.3 µM; in [3] (Homo sapiens), more than 100 µM; in data set [4] (Homo sapiens), more than 100 µM; in data set [5] (Homo sapiens) it was more than 100 µM. In [2], the “antiproliferative activity in words” value is “selective antiproliferative inhibition effect”. Further, the “antibacterial activity in words” value in data set [9] (Mycobacterium vaccae, agar diffusion, compared to ciprofloxacin) is “highest antibacterial activity”; in [12] (Enterococcus faecalis VRE, agar diffusion), “highest antibacterial activity”. Further, the zone of inhibition at 1000 µg/mL in [9] (setting [20]) was determined as 23 mm; in [12] (setting [21]) it was 17 mm; in [14], 12 mm. Further, the “Inhibition Zone of Test Microorganism” value in [11], in data set [17] and in data set [18] was “-” throughout.

`O=C1CC(c2cccc(O)c2O)Oc2cc3c(c(O)c21)OCO3` (centres unmarked) [Compound 5, 5,2′,3′-Trihydroxy-6,7-methylenedioxyflavanone]: in data set [15], the CC50 at 72 h was more than 100 µM. Moreover, the “antimicrobial activity over the panel in words” value in data set [16] is “most active; also recorded: broad activity against eight microorganisms out of eleven”. Moreover, the GI50 in [2] (Homo sapiens, K562) was 44.3 µM; in [3] (Homo sapiens), more than 100 µM; in data set [4] (Homo sapiens) it was 16.5 µM; in data set [5] (Homo sapiens) it was 69 µM. In addition, the zone of inhibition at 1000 µg/mL is 20 mm in data set [9] (setting [20]); 15 mm in data set [10] (setting [22]); 13 mm in [11] (setting [22]); 13 mm in data set [12] (setting [21]); 17 mm in [17] (Pseudomonas aeruginosa, read-out: Inhibition Zone of Test Microorganism); 13 mm in data set [14]. In addition, the zone of inhibition at 1000 µg/mL is 16 mm in [7] (Penicillium chrysogenum, Penicillium notatum (JP36 P1), 50 μL of 1 mg/mL in DMSO, 18 h, 30 °C, amphotericin B 10 µg/mL, read-out: Inhibition Zone of Test Microorganism) and 13 mm in data set [8] (setting [19]). Besides, the “Inhibition Zone of Test Microorganism” value in data set [18] is recorded as “-”. Also, the “antifungal activity in words” value in [7] (Penicillium notatum, agar diffusion) was “moderate activity”; in data set [8], “weak activity”.

For the compound `COc1cc2occ(-c3cccc(O)c3O)c(=O)c2c(O)c1OC` [Compound 10, 5,2′,3′-Trihydroxy-6,7-dimethoxyisoflavone], in [15], the CC50 at 72 h is more than 100 µM. Also, the “antimicrobial activity over the panel in words” value in data set [16] was “most active”. For the same compound, the concentration for 50% growth inhibition (GI50) amounted to 7.6 µM in [2] (Homo sapiens, K562); 98.8 µM in data set [3] (Homo sapiens); 9.1 µM in data set [4] (Homo sapiens); 35.8 µM in data set [5] (Homo sapiens). In addition, the “antiproliferative activity in words” value in data set [2] and in [4] (THP-1) was “active” each time. In addition, the zone of inhibition at 1000 µg/mL in [9] (setting [20]) was 16 mm; in data set [12] (setting [21]), 13 mm; in data set [14] it was 13 mm; in [8] (setting [19]), 13 mm. Moreover, the “Inhibition Zone of Test Microorganism” value in [11], in [17] and in [18] was “-” throughout. In [8], the “antifungal activity in words” value is reported as “weak activity”.
